Among the data in PubChem BioAssay AID2765 (Broad Institute, 2010) are EC50 values, retold here.

Calls of active or inactive are those of the source.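 Rule for the calls: active = half-maximal concentration for the rise in caspase light signal at or below ten times the top tested dose; inconclusive = flat fit between 30% and 70% activity, or unreliable curve fit; inactive = the rest.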 A value given as a limit tells only on which side of the number the result lay.

In general, EC50 refers to the concentration at which the effect is half-maximal.

The experiment deals with MEF A1-2A-BIM cells, caspase 3/7 luminescence, 3 h. As to the kind of experiment: caspase activation in A1-2A-BIM MEF cells, dose response, A1 inhibitor project, cell-based, luminescence, retest (AID 2765).
Regarding `Cn1c(SCc2ccccc2)nc(N)c(N=O)c1=O`, the EC50 is > 35 µM (inactive).
`CC(=O)OCCCNc1cc(Sc2nc3ccccc3s2)c2nonc2c1[N+](=O)[O-]`: the EC50 is > 35 µM (inactive).
With `CCN1C(=O)/C(=C2\Sc3ccccc3N2CC)OC1=S` the figure was > 35 µM (inactive); with `Cc1ccc(NC(=O)CSc2nc3ccc(Nc4nc(N5CCOCC5)nc(N5CCOCC5)n4)cc3s2)cc1`, 14.9 µM.
As for `O=C1C(=O)N(Cc2ccco2)C(c2cccs2)/C1=C(\O)c1cccc([N+](=O)[O-])c1` (stereo not drawn), the EC50 was > 35 µM (inactive).
In the case of `CC(NC(=O)c1cc(F)c(F)c(F)c1F)c1ccc(-n2ccnc2)cc1` (stereo not drawn) it was > 35 µM (inactive).
For the compound `O=[N+]([O-])c1ccc(S(=O)(=O)N/N=C/c2ccsc2)cc1`, the EC50 was > 35 µM (inactive).
`COc1ccc(CCNCC(C)c2ccccc2)cc1` (stereo not drawn): the EC50 is > 35 µM (inactive).
Take `Cc1nc(NC(=O)CN2CCN(c3cccc(Cl)c3)CC2)sc1C(=O)N(C)C`: the EC50 was > 35 µM (inactive).
As for `Cc1ccc2c(c1)C(=O)C(=O)N2Cc1ccc(Br)cc1`, the EC50 was > 35 µM (inactive).
Consider `CCc1nnc(NC(=O)CSc2nc(-c3ccccc3)cc(-c3ccc(F)cc3)c2C#N)s1`, for which the EC50 was 24.2 µM.
Regarding `Cc1noc(C)c1CSCC(=O)N(C)CC(=O)Nc1ccc(Cl)c(Cl)c1`, the EC50 was > 35 µM (inactive).
Take `Cc1cccc[n+]1CC(=O)c1ccccc1`: the EC50 is > 35 µM (inactive).
